# Experimental data: US20070270434A1, “SULFONYL-SUBSTITUTED BICYCLIC COMPOUNDS AS MODULATORS OF PPAR” (KALYPSYS, INC., priority 2006, published 2007)
# How the values were obtained:
# Type in all cases: cell-based, murine and human
# Details in all cases: 20-24 hours
# [1] = molecular target: T1, PPAR-alpha ligand binding domain fused to GAL4 DNA binding domain (UniProt Q07869); test: Transient transfection transactivation assay in CV-1 cells, PPAR-alpha (GAL4 chimera, luciferase reporter)
# T1 sequence (Q07869 1-468): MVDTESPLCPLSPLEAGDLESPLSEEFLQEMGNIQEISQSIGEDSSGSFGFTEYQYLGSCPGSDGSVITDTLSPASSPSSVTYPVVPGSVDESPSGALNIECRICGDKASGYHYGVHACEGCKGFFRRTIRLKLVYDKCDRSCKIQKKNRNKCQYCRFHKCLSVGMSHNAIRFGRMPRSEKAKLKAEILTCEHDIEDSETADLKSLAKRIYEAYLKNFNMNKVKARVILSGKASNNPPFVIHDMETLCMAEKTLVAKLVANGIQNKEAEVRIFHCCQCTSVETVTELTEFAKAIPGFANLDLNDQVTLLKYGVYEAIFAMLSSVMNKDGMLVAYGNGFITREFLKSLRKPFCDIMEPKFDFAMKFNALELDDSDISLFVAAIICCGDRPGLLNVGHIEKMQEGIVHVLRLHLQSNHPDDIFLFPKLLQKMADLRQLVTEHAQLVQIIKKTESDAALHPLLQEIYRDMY
# Excerpt: (§1) Compounds may be screened for functional potency in transient transfection assays in CV-1 cells for their ability to activate the PPAR subtypes (transactivation assay). A previously established chimeric receptor system was utilized to allow comparison of the relative transcriptional activity of the receptor subtypes on the same synthetic response element and to prevent endogenous receptor activation from complicating the interpretation of results. See, for example, Lehmann, J. M.; Moore, L. B.; Smith-Oliver, T. A; Wilkinson, W. O.; Willson, T. M.; Kliewer, S. A., An antidiabetic thiazolidinedione is a high affinity ligand for peroxisome proliferator-activated receptor […], J. Biol. Chem., 1995, 270, 12953-6. The ligand binding domains for murine and human PPAR-alpha, PPAR-gamma, and PPAR-delta are each fused to the yeast transcription factor GAL4 DNA binding domain. CV-1 cells were transiently transfected with expression vectors for the respective PPAR chimera along with a reporter construct containing four or five copies of the GAL4 DNA binding site driving expression of luciferase. After 8-16 h, the cells are replated into multi-well assay plates and the media is exchanged to phenol-red free DME medium supplemented with 5% delipidated calf serum. 4 hours after replating, cells were treated with either compounds or 1% DMSO for 20-24 hours. Luciferase activity was then assayed with Britelite (Perkin Elmer) following the manufacturer's protocol and measured with either the Perkin Elmer Viewlux or Molecular Devices Acquest (see, for example, Kliewer, S. A., et. al. Cell 1995, 83, 813-819). Rosiglitazone is used as a positive control in the PPARγ assay. Wy-14643 and GW7647 are used as positive controls in the PPARα assay. GW501516 is used as the positive control in the PPARδ assay.
# [2] = molecular target: T2, PPAR-gamma ligand binding domain fused to GAL4 DNA binding domain (UniProt P37231); test: Transient transfection transactivation assay in CV-1 cells, PPAR-gamma (GAL4 chimera, luciferase reporter)
# T2 sequence (P37231 1-505): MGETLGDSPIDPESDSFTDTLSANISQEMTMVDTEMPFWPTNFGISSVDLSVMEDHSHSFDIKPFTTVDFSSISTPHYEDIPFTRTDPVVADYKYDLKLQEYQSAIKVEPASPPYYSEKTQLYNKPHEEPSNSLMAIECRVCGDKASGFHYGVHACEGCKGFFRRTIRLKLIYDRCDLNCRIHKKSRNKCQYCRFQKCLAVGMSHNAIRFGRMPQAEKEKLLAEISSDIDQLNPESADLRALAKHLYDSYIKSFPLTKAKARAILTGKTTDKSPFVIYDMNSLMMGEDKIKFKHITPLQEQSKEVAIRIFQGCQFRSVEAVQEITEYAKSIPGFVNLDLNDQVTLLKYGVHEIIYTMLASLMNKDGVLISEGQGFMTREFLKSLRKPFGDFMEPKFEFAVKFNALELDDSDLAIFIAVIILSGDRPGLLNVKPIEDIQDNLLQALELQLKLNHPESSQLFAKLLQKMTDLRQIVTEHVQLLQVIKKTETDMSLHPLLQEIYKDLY
# Excerpt: as §1
# [3] = molecular target: T3, PPAR-delta ligand binding domain fused to GAL4 DNA binding domain (UniProt Q03181); test: Transient transfection transactivation assay in CV-1 cells, PPAR-delta (GAL4 chimera, luciferase reporter)
# T3 sequence (Q03181 1-441): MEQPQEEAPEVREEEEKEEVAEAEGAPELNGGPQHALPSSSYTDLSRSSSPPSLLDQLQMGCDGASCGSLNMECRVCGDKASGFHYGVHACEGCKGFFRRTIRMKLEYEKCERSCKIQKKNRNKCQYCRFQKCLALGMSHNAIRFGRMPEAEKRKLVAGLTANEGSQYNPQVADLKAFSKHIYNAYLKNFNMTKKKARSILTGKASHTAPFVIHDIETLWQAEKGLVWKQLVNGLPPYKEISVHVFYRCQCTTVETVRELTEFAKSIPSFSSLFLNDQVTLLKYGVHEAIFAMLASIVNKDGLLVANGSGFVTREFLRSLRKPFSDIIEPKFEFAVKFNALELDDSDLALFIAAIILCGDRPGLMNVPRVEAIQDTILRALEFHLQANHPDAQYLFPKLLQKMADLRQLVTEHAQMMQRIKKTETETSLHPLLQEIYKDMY
# Excerpt: as §1
EC50 [1],EC50 [2],EC50 [3],SMILES
> 100 µM,> 100 µM,5 to 100 µM,"C[C@@H]1CN(C(=O)c2ccc(OC(F)(F)F)cc2)C[C@H](C)N1S(=O)(=O)c1cccc2c1CC(C(=O)O)C2 (stereo partly drawn) [Example 9, 4-(cis-2,6-Dimethyl-4-(4-(trifluoromethoxy)benzoyl)piperazin-1-ylsulfonyl)-2,3-dihydro-1H-indene-2-carboxylic acid]"
5 to 100 µM,< 5 µM,< 5 µM,"O=C(O)C1Cc2cccc(S(=O)(=O)N3CCN(CCCc4ccc(OC(F)(F)F)cc4)CC3)c2C1 (stereo not drawn) [Example 22, 4-(4-(3-(4-(Trifluoromethoxy)phenyl)propyl)piperazin-1-ylsulfonyl)-2,3-dihydro-1H-indene-2-carboxylic acid]"
5 to 100 µM,5 to 100 µM,< 5 µM,"C[C@@H]1CN(Cc2ccc(SC(F)(F)F)cc2)C[C@H](C)N1S(=O)(=O)c1cccc2c1CC(C(=O)O)C2 (stereo partly drawn) [Example 6, 4-(cis-2,6-Dimethyl-4-(4-(trifluoromethylthio)benzyl)piperazin-1-ylsulfonyl)-2,3-dihydro-1H-indene-2-carboxylic acid]"
> 100 µM,< 5 µM,< 5 µM,O=C(O)C1Cc2cccc(S(=O)(=O)N3CCN(Cc4cccc(OC(F)(F)F)c4)CC3)c2C1 (stereo not drawn) [Example 2]
> 100 µM,> 100 µM,< 5 µM,"C[C@@H]1CN(CCc2ccc(OC(F)(F)F)cc2)C[C@H](C)N1S(=O)(=O)c1cccc2c1CC(C(=O)O)C2 (mixture of isomers) [Example 12A, 4-(cis-2,6-Dimethyl-4-(4-(trifluoromethoxy)phenethyl)piperazin-1-ylsulfonyl)-2,3-dihydro-1H-indene-2-carboxylic acid]"
> 100 µM,> 100 µM,> 100 µM,"C[C@@H]1CN(CC(c2ccc(Cl)cc2)c2ccc(Cl)cc2)C[C@H](C)N1S(=O)(=O)c1cccc2c1CC(C(=O)O)C2 (stereo partly drawn) [Example 28, 4-(4-(2,2bis(4-Chlorophenyl)ethyl)-(cis)-2,6-dimethylpiperazin-1-ylsulfonyl)-2,3-dihydro-1H-indene-2-carboxylic acid]"
> 100 µM,5 to 100 µM,5 to 100 µM,"O=C(O)C1Cc2cccc(S(=O)(=O)N3CCN(C(=O)Cc4ccc(OC(F)(F)F)cc4)CC3)c2C1 (stereo not drawn) [Example 19, 4-(4-(2-(4-(trifluoromethoxy)phenyl)acetyl)piperazin-1-ylsulfonyl)-2,3-dihydro-1H-indene-2-carboxylic acid]"
> 100 µM,5 to 100 µM,< 5 µM,"C[C@@H]1CN(CCCc2ccc(OC(F)(F)F)cc2)C[C@H](C)N1S(=O)(=O)c1cccc2c1CC(C(=O)O)C2 (stereo partly drawn) [Example 17, 4-(cis-2,6-dimethyl-4-(3-(4-(trifluoromethoxy)phenyl)propyl)piperazin-1-ylsulfonyl)-2,3-dihydro-1H-indene-2-carboxylic acid]"
> 100 µM,> 100 µM,5 to 100 µM,"O=C(O)C1Cc2cccc(S(=O)(=O)N3CCN(C(=O)c4ccc(OC(F)(F)F)cc4)CC3)c2C1 (stereo not drawn) [Example 18, 4-(4-(4-(trifluoromethoxy)benzoyl)piperazin-1-ylsulfonyl)-2,3-dihydro-1H-indene-2-carboxylic acid]"
> 100 µM,5 to 100 µM,5 to 100 µM,"O=C(O)C1Cc2cccc(S(=O)(=O)N3CCN(C(=O)Cc4ccc(C(F)(F)F)cc4)CC3)c2C1 (stereo not drawn) [Example 20, 4-(4-(2-(4-(trifluoromethyl)phenyl)acetyl)piperazin-1-ylsulfonyl)-2,3-dihydro-1H-indene-2-carboxylic acid]"
> 100 µM,5 to 100 µM,< 5 µM,"C[C@@H]1CN(S(=O)(=O)c2ccc(OC(F)(F)F)cc2)C[C@H](C)N1S(=O)(=O)c1cccc2c1CC(C(=O)O)C2 (stereo partly drawn) [Example 11, 4-(cis-2,6-Dimethyl-4-(4-(trifluoromethoxy)phenylsulfonyl)piperazin-1-ylsulfonyl)-2,3-dihydro-1H-indene-2-carboxylic acid]"
